Active and inactive are the calls of the source. The rule behind the calls is not given here.
Legend:
[1] = biological target: T1, Prostaglandin G/H synthase 2 (Homo sapiens) (UniProt P35354); assay: Inhibition of COX2
T1 sequence (whole entry): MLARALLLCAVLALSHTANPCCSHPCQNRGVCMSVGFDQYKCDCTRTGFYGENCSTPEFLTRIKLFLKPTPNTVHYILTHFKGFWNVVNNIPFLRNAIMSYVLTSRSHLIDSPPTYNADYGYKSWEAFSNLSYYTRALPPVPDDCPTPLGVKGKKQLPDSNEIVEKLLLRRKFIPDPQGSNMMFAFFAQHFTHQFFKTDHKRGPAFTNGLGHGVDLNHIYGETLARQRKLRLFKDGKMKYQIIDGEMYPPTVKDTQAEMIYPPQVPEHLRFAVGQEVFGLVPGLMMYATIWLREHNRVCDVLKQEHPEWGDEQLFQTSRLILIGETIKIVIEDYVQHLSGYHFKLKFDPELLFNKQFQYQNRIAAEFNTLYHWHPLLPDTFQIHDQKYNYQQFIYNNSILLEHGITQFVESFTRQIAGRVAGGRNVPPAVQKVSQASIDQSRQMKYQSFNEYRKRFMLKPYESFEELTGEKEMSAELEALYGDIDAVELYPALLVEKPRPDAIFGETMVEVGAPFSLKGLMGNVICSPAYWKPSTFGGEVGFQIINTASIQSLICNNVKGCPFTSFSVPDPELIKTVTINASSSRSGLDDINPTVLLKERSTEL

SK-BR-3 = assay: Cytotoxicity against human SK-BR-3 cells after 24 hrs by MTT assay relative to NS398; format: functional, cell-based; conditions: SK-BR-3, 24 h

In the case of CN(c1ccc([N+](=O)[O-])cc1OCCC1CCCCC1)S(C)(=O)=O, the Activity [1] is reported as “inactive” and the IC50 (SK-BR-3) is reported as 2.54 µM.

CN(c1ccc([N+](=O)[O-])cc1OC1CCCC1)S(C)(=O)=O was tested, and the Activity [1] was “inactive” and the IC50 (SK-BR-3) was 1.09 µM.

With CS(=O)(=O)Nc1ccc([N+](=O)[O-])cc1OC1CCCCC1 [NS-398] the IC50 (SK-BR-3) was 0.72 µM.

CC(C)Oc1cc([N+](=O)[O-])ccc1N(C)S(C)(=O)=O was tested, and the Activity [1] was “inactive” and the IC50 (SK-BR-3) was 1.79 µM.

In the case of CCCOc1cc([N+](=O)[O-])ccc1N(C)S(C)(=O)=O, the Activity [1] is reported as “inactive” and the IC50 (SK-BR-3) is reported as 1.24 µM.

For CN(c1ccc([N+](=O)[O-])cc1OC1CCCCC1)S(C)(=O)=O, the Activity [1] was “inactive” and the IC50 (SK-BR-3) was 0.66 µM.

With CCC(CC)Oc1cc([N+](=O)[O-])ccc1N(C)S(C)(=O)=O the Activity [1] was “inactive” and the IC50 (SK-BR-3) was 0.84 µM.

Reference: ChEMBL document CHEMBL1146286, “Synthesis of carbon-11 labeled sulfonanilide analogues as new potential PET agents for imaging of aromatase in breast cancer” (Bioorg Med Chem Lett, 2007)
